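Assay format: 96-well plates, 48-hour exposure. Abbreviation: GI50, concentration required for 50% inhibition of growth. TGI: total growth inhibition.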 Where a SMILES comes first, the peptide text is derived from it. [ ]: non-standard residue; d: D form. 2Nal = N[CH](Cc1ccc2ccccc2c1)C(=O)O
Assays:
Assay in all cases: inhibition of tumour cell growth, NCI panel, 48 h
OVCAR-8 ovarian = test system: OVCAR-8 ovarian
M14 melanoma = test system: M14 melanoma
UO-31 renal = test system: UO-31 renal
A498 renal = test system: A498 renal
K-562 leukemia = test system: K-562 leukemia
SF-268 CNS = test system: SF-268 CNS
RPMI-8226 leukemia = test system: RPMI-8226 leukemia
CCRF-CEM leukemia = test system: CCRF-CEM leukemia
SK-OV-3 ovarian = test system: SK-OV-3 ovarian
MDA-MB-231 breast = test system: MDA-MB-231 breast

SMILES | GI50 (OVCAR-8 ovarian) [µM] | TGI (OVCAR-8 ovarian) [µM] | GI50 (M14 melanoma) [µM] | TGI (M14 melanoma) [µM] | GI50 (UO-31 renal) [µM] | TGI (UO-31 renal) [µM] | GI50 (A498 renal) [µM] | TGI (A498 renal) [µM] | GI50 (K-562 leukemia) [µM] | TGI (K-562 leukemia) [µM] | GI50 (SF-268 CNS) [µM] | TGI (SF-268 CNS) [µM] | GI50 (RPMI-8226 leukemia) [µM] | TGI (RPMI-8226 leukemia) [µM] | GI50 (CCRF-CEM leukemia) [µM] | TGI (CCRF-CEM leukemia) [µM] | GI50 (SK-OV-3 ovarian) [µM] | TGI (SK-OV-3 ovarian) [µM] | GI50 (MDA-MB-231 breast) [µM] | TGI (MDA-MB-231 breast) [µM]
C/C=C(/C)C(=O)OC1C=C(CO)C(=O)C(OC(=O)C(C)(O)C(C)Cl)C1C(C)C (stereo unspecified) | 1.56 | 5.3 | 1.6 | 3.5 | 1.34 | 2.64 | 1.9 | 3.87 | 0.396 | 12.5 | 2.19 | 5.08 | 0.429 | 2.65 | 0.327 | 2.05 | 4.5 | 14.9 | 0.758 | 2.26
CSc1ccc(C2=NN(C(C)=O)C(c3ccc(F)cc3)C2)cc1 (stereo unspecified) | 19.4 | 42 | 14.4 | 28.8 | 14.2 | 29.8 | 12.5 | 26.8 | 14.5 | 36 | 14.9 | 42.5 | 12 | 32.5 | 0.617 | 24.5 | 23 | 67.7 | 10.7 | 28.6
CC(C)C(NC(=O)C(CCCCN)NC(=O)C(Cc1c[nH]c2ccccc12)NC(=O)C(Cc1ccc(O)cc1)NC(=O)C(CS)NC(=O)C(N)Cc1ccc2ccccc2c1)C(=O)NC(CS)C(=O)NC(C(N)=O)C(C)O (stereo unspecified) (H-[2Nal]CYWKVCT-NH2; configuration not given here) | > 100 | > 100 | > 100 | > 100 | > 100 | > 100 | > 100 | > 100 | > 100 | > 100 | – | > 12.5 | > 100 | > 100 | > 100 | > 100 | > 100 | > 100 | – | > 12.5
COc1ccc(/C=C2\CC(C)CC3C2=NN(c2ccccc2)C3c2ccc(OC)c(OC)c2)cc1OC (stereo unspecified) | 6.78 | > 100 | – | – | 5.75 | > 100 | 14.5 | 72.7 | 1.85 | 5.4 | 3.31 | 37.2 | 3.38 | > 100 | 4.02 | > 100 | 9.29 | > 100 | 3.24 | 13.2
Cc1cn2c(/C=C3/C(=O)Nc4ccc(F)cc43)c(C)nc2s1 | 10.4 | > 50 | 2.68 | 17 | 6.62 | 40.8 | 9.59 | 25.8 | 1.72 | > 50 | 12.6 | > 50 | 20.3 | > 50 | 14.8 | > 50 | 10.6 | > 50 | 12.1 | > 50
CC[C@@H](C)Nc1cc(C(=O)NC2CC3CCC(C2)N3c2ccc(C(=O)C3CC3)cn2)c(C)cc1C(N)=O (stereo partly specified) | 0.047 | > 100 | 0.0489 | > 84 | 0.0479 | > 100 | 0.103 | > 100 | 0.0378 | > 100 | 0.357 | > 100 | 0.0538 | > 74.3 | 0.0482 | > 100 | < 0.0114 | > 100 | 0.0538 | > 100
